Data on four compounds can be found in patent US20110172147A1, “NEUROPEPTIDE-2 RECEPTOR (Y-2R) AGONISTS” (priority 2009, published 2011).

A value given as a limit tells only on which side of the number the result lay.

Format in all cases: cell-based
One experiment deals with T1, Y1R (Homo sapiens, UniProt P25929).
T1 sequence (P25929 1-384): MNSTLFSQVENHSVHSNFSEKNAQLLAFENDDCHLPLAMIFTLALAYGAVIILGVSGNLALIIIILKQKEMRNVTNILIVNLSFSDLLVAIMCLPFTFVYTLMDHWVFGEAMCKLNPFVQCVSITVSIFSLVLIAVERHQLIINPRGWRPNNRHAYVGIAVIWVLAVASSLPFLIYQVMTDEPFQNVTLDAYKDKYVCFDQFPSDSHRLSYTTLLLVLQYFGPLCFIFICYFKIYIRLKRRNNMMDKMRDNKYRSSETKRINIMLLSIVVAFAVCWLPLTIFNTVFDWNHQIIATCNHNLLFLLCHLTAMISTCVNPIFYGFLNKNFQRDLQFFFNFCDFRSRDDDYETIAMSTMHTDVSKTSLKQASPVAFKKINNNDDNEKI
Description: CaFlux Assay (FLIPR), Y1R.

Experiment [1] has as its target T2, hNPY2R (Homo sapiens, UniProt P49146).
T2 sequence (P49146 1-381): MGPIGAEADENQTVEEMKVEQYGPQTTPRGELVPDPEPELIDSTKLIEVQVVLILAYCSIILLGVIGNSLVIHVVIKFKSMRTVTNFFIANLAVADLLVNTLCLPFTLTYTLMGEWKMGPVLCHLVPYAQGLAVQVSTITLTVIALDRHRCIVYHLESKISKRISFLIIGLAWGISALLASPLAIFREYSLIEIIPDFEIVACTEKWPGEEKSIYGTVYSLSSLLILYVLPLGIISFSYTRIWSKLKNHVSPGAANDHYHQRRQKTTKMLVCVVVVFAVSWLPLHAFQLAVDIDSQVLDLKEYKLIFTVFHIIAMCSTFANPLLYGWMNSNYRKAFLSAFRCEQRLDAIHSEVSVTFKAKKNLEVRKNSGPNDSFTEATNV
The experiment can be described thus: CaFlux Assay (FLIPR), Y2R. Details: expressed in transfected cells; host or cells: HEK-293 stably transfected with G protein chimera Gαqi9. The method, then:
HEK-293 cells were stably transfected with the G protein chimera Gαqi9 and the hygromycin-B resistance gene were further transfected with the human NPY2 receptor and G418 antibiotic selection. Following selection in both hygromycin-B and G418, individual clones were assayed for their response to PYY. The transfected cells were cultured in DMEM medium supplemented with 10% fetal bovine serum, 50 μg/mL hygromycin-B, 2 mM glutamine, 100 U/mL penicillin, 100 μg/mL streptomycin and 250 μg/mL G418. Cells are harvested with trypsin-EDTA and counted using ViaCount reagent. The cell suspension volume is adjusted to 4.8×10^5 cells/mL with complete growth media. Aliquots of 25 μL are dispensed into 384 well Poly-D Lysine coated black/clear microplates (Falcon) and the microplates were placed in a 37° C. CO2 incubator overnight. Loading Buffer (Calcium-3 Assay Kit, Molecular Devices) was prepared by dissolving the contents of one vial (Express Kit) into […] Hank's Balanced Salt Solution containing 20 mM HEPES and 5 mM probenecid. Aliquots of 25 μL of diluted dye were dispensed into the cell plates and the plates are then incubated for 1 hour at 37° C. During the incubation, test compounds were prepared at 3.5× the desired concentration in HBSS (20 mM HEPES)/0.05% BSA/1% DMSO and transferred to a 384-well plate for use on FLIPR. After incubation, both the cell and compound plates were brought to the FLIPR and 20 μL of the diluted compounds were transferred to the cell plates by the FLIPR. During the assay, fluorescence readings were taken simultaneously from all 384 wells of the cell plate every 1.5 seconds. Five readings were taken to establish a stable baseline, and then 20 μL of sample was rapidly (30 μL/sec) and simultaneously added to each well of the cell plate. The fluorescence was continuously monitored before, during and after sample addition for a total elapsed time of 100 seconds. Responses (increase in peak fluorescence) in each well following addition were determined. The initial fluorescence reading from each well, prior to ligand stimulation, was used as a zero baseline value for the data from that well. The responses are expressed as % of maximal response of the positive control.

Another experiment concerns the target Y4R (Homo sapiens, UniProt P50391). Description: CaFlux Assay (FLIPR), Y4R.
The target in a further experiment is T3, Y5R (Homo sapiens, UniProt Q15761).
T3 sequence (Q15761 1-445): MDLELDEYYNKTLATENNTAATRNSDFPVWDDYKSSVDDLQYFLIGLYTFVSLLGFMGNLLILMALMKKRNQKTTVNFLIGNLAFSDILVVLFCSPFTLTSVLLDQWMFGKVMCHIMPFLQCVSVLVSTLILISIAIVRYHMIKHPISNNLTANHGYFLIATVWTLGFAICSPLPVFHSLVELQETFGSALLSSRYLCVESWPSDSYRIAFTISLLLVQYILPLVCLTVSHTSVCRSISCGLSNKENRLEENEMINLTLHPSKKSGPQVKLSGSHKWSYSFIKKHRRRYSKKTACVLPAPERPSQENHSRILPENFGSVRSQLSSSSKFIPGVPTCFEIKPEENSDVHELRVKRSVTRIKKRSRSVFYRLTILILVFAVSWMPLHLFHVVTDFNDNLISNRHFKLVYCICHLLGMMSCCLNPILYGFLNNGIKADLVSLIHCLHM
Description: CaFlux Assay (FLIPR), Y5R.

Experiment [2] has as its target T2, hNPY2R. Description: cAMP Agonist Assay, HEK293/hNPY2R. Details: expressed in transfected cells; host or cells: HEK293/hNPY2R (G418 selection). On the procedure:
In this example, the following materials were used: 384-well plate; Tropix cAMP-Screen Kit; cAMP ELISA System (Applied Biosystems, cat. #T1505; CS 20000); Forskolin (Calbiochem cat. # 344270); cells: HEK293/hNPY2R; growth medium: Dulbecco's modified eagle medium (D-MEM, Gibco); 10% Fetal bovine serum (FBS, Gibco), heat-inactivated; 1% Penicillin/Streptomycin (Pen 10000 unit/mL: Strep […], Gibco); […] G418 (Geneticin, Gibco cat. # 11811-031); and plating medium: DMEM/F12 w/o phenol red (Gibco); 10% FBS (Gibco, cat. # 10082-147), heat-inactivated; 1% Penicillin/Streptomycin (Gibco, cat. # 15140-122); […] G418 (Geneticin, Gibco, cat. # 11811-031).
On the first day, medium was discarded, and the monolayer cells were washed with 10 mL PBS per flask (T225). After decanting with PBS, 5 mL VERSENE (Gibco, cat #1504006) was used to dislodge the cells (5 min @37 C). The flask was gently tapped and the cell suspension was pooled. Each flask was rinsed with 10 mL plating medium and centrifuged at 1000 rpm for 5 min. The suspension was pooled and counted. The suspension was resuspended in plating medium at a density of 2.0×10^5 cells/mL for HEK293/hNPY2R. 50 microliters of cells (HEK293/hNPY2R-10,000 cells/well) were transferred into the 384-well plate using Multi-drop dispenser. The plates were incubated at 37° C. overnight. On the second day, the cells were checked for 75-85% confluence. The media and reagents were allowed to come to room temperature. Before the dilutions were prepared, the stock solution of stimulating compound in dimethyl sulphoxide (DMSO, Sigma, cat #D2650) was allowed to warm up to 32 C for 5-10 min. The dilutions were prepared in DMEM/F12 with 0.5 mM 3-Isobutyl-1-methylxanthine (IBMX, Calbiochem, cat #410957) and 0.5 mg/mL BSA. The final DMSO concentration in the stimulation medium was 1.1% with Forskolin concentration of 5 μM. The cell medium was tapped off with a gentle inversion of the cell plate on a paper towel. 50 μL of stimulation medium was placed per well (each concentration done in four replicates). The plates were incubated at room temperature for 30 min, and the cells were checked under a microscope for toxicity. After 30 minutes of treatment, the stimulation media was discarded and […] of Assay Lysis Buffer (provided in the Tropix kit) was added. The plates were incubated for 45 min @ 37° C. 20 μL of the lysate was transferred from stimulation plates into the pre-coated antibody plates (384-well) from the Tropix kit. 10 μL of AP conjugate and 20 μL of anti-cAMP antibody was added. The plates were incubated at room temperature while shaking for 1 hour. The plates were then washed 5 times with Wash Buffer, 70 μL per well for each wash. The plates were tapped to dry. 30 μL/well of CSPD/Saphire-II RTU substrate/enhancer solution was added and incubated for 45 min @ RT (shake). Signal for 1 sec/well in a Luminometer. (VICTOR-V) was measured.

Y4R, sequence (P50391 whole entry): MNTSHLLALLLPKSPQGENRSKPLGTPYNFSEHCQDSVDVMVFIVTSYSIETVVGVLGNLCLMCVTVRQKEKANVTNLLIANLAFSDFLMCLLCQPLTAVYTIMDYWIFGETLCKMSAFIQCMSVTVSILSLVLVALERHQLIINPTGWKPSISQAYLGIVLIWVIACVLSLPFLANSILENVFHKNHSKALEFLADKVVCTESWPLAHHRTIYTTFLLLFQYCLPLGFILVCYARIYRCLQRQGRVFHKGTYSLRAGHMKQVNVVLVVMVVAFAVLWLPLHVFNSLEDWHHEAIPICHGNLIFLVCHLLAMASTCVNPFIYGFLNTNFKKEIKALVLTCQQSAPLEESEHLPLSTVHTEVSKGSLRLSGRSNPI

One may read the EC50 as the concentration giving half of the maximal effect. A low value points to higher potency in that assay. On to `CCCCCCCCCCCCCCCCCCCC(=O)N[C@@H](CCC(=O)O)C(=O)N[C@@H](CCC(=O)O)C(=O)N[C@H](C(=O)N[C@@H](CCCCNC(=O)CCOCCOCCOCCOCCOCCOCCOCCOCCOCCOCCOCCOCCOCCOCCOCCOC)C(=O)N1CCN(c2ccc3ncn(CC(=O)N[C@@H](CCCNC(=N)N)C(=O)N[C@@H](Cc4c[nH]cn4)C(=O)N[C@@H](Cc4ccc(O)cc4)C(=O)N[C@@H](Cc4c[nH]cn4)C(=O)N[C@@H](CC(N)=O)C(=O)N[C@@H](Cc4c[nH]c5ccccc45)C(=O)N[C@H](C(=O)N[C@H](C(=O)N[C@@H](CCCNC(=N)N)C(=O)N[C@@H](CCC(N)=O)C(=O)N[C@@H](CCCNC(=N)N)C(=O)N[C@@H](Cc4ccc(O)cc4)C(N)=O)[C@@H](C)O)C(C)C)c(=O)c3c2)CC1)[C@@H](C)CC` [Example 56], for which the EC50 on Y1R was greater than 6000 nM; at hNPY2R [1], 0.098 nM; on Y4R, greater than 6000 nM; on Y5R, 8.73 nM; on hNPY2R [2] it was 0.013 nM.
On to `CC[C@H](C)[C@H](NC(=O)CCCCCNC(=O)CCOCCOCCOCCOCCOCCOCCOCCOCCOCCOCCOCCOCCOCCOCCOCCOCCOCCOCCOCCOCCOCCOCCOCCOC)C(=O)N[C@@H](CCCCN)C(=O)N1CCN(c2ccc3ncn(CC(=O)N[C@@H](CCCNC(=N)N)C(=O)N[C@@H](Cc4c[nH]cn4)C(=O)N[C@@H](Cc4ccc(O)cc4)C(=O)N[C@@H](CC(C)C)C(=O)N[C@@H](CC(N)=O)C(=O)N[C@@H](Cc4c[nH]c5ccccc45)C(=O)N[C@H](C(=O)N[C@H](C(=O)N[C@@H](CCCNC(=N)N)C(=O)N[C@@H](CCC(N)=O)C(=O)N(C)[C@@H](CCCNC(=N)N)C(=O)N[C@@H](Cc4ccc(O)cc4)C(N)=O)[C@@H](C)O)C(C)C)c(=O)c3c2)CC1` [Example 20], for which the EC50 was greater than 6000 nM on Y1R; 0.488 nM at hNPY2R [1]; greater than 6000 nM on Y4R; greater than 6000 nM at Y5R; 0.89 nM at hNPY2R [2].
As for `CCCCCCCCCCCCCCCCCCCC(=O)N[C@@H](CCC(=O)N[C@@H](CCC(=O)NCCCC[C@H](NC(=O)[C@@H](NC(=O)CCOCCOCCOCCOCCOCCOCCOCCOCCOCCOCCOCCOCCOCCOCCOCCOCCOCCOCCOCCOCCOCCOCCOCCOC)[C@@H](C)CC)C(=O)N1CCN(c2ccc3ncn(CC(=O)N[C@@H](CCCNC(=N)N)C(=O)N[C@@H](Cc4c[nH]cn4)C(=O)N[C@@H](Cc4ccc(O)cc4)C(=O)N[C@@H](CC(C)C)C(=O)N[C@@H](CC(N)=O)C(=O)N[C@@H](Cc4c[nH]c5ccccc45)C(=O)N[C@H](C(=O)N[C@H](C(=O)N[C@@H](CCCNC(=N)N)C(=O)N[C@@H](CCC(N)=O)C(=O)N(C)[C@@H](CCCNC(=N)N)C(=O)N[C@@H](Cc4ccc(O)cc4)C(N)=O)[C@@H](C)O)C(C)C)c(=O)c3c2)CC1)C(=O)O)C(=O)O` [Example 26], the EC50 on Y1R is greater than 9000 nM; on hNPY2R [1], 0.01 nM; on Y4R, greater than 9000 nM; at Y5R, 1920 nM; at hNPY2R [2], 0.1 nM. Also, the “Y5R FLIPR agonist character (partial agonist mark)” value on Y5R (FLIPR) is recorded as “P.A”.
Regarding `CCCCCCCCCCCCCCCCCCCC(=O)N[C@@H](CCC(=O)N[C@@H](CCC(=O)N[C@H](C(=O)N[C@@H](CCCCNC(=O)CCOCCOCCOCCOCCOCCOCCOCCOCCOCCOCCOCCOCCOCCOCCOCCOC)C(=O)N1CCN(c2ccc3ncn(CC(=O)N[C@@H](CCCNC(=N)N)C(=O)N[C@@H](Cc4c[nH]cn4)C(=O)N[C@@H](Cc4ccc(O)cc4)C(=O)N[C@@H](CC(C)C)C(=O)N[C@@H](CC(N)=O)C(=O)N[C@@H](Cc4c[nH]c5ccccc45)C(=O)N[C@H](C(=O)N[C@H](C(=O)N[C@@H](CCCNC(=N)N)C(=O)N[C@@H](CCC(N)=O)C(=O)N(C)[C@@H](CCCNC(=N)N)C(=O)N[C@@H](Cc4ccc(O)cc4)C(N)=O)[C@@H](C)O)C(C)C)c(=O)c3c2)CC1)[C@@H](C)CC)C(=O)O)C(=O)O` [Example 59], the EC50 at Y1R was greater than 9000 nM; at hNPY2R [1], 0.285 nM; at Y4R it was greater than 9000 nM; on Y5R, 3880 nM; on hNPY2R [2], 0.29 nM.
